From patent US8404677B2, “Kinase inhibitors” (Genosco, priority 2009, dated 2013)

Legend:
UACC-257 = experiment: cells; assay type: cell-based; settings: UACC-257 (Melanoma)
BT-549 = experiment: cells; assay type: cell-based; settings: BT-549 (Breast Cancer)
A498 = experiment: cells; assay type: cell-based; settings: A498 (Renal Cancer)
HCT-15 = experiment: cells; assay type: cell-based; settings: HCT-15 (Colon Cancer)
SN12C = experiment: cells; assay type: cell-based; settings: SN12C (Renal Cancer)
LOX IMVI = experiment: cells; assay type: cell-based; settings: LOX IMVI (Melanoma)
786-0 = experiment: cells; assay type: cell-based; settings: 786-0 (Renal Cancer)
[1] = test system: SN4741 cells transfected with vector; experiment: Neuroprotection from LRRK2-mediated dopaminergic cell death (H2O2, crystal violet); assay type: cell-based, murine; settings: 100 μM hydrogen peroxide
Experimental: (§1) SN4741, a murine dopaminergic cell line were cultured in DMEM containing 10 FBS at 37° C., respectively. SN4741 cells (1.5×10^4/well) were seeded in 48 well plates 1 day before transient transfection with 1 μg of the pcDNA3.1 plasmids of either vector, LRRK wildtype cDNA, LRRK G2019S cDNA, by standard CaCl2 precipitation. Two days after transfection, cells were treated with 100 μM hydrogen peroxide for 1 day and cell viability was measured by crystal violet assay. For compound treatment, the test compounds were added at 0.05 μM, 0.5 μM and 5 μM and the cells were incubated for 1 hour prior to the addition of hydrogen peroxide.
(§2) SN4741 cells were transfected with plasmids containing the LRRK2 wild-type or G2019S and incubated them for 2 days followed by addition of 100 μM of hydrogen peroxide for 24 h to sensitize them to oxidative stress. Cell survival was assessed using the crystal violet.

[2] = test system: SN4741 cells overexpressing LRRK2 G2019S; experiment: as above; assay type: cell-based, murine; settings: for Percent Cell Death: 100 μM hydrogen peroxide
Experimental: as §1, §2

[3] = test system: SN4741 cells overexpressing LRRK2 wild-type; experiment: as above; assay type: cell-based, murine; settings: for Percent Cell Death: LRRK2 WT, 100 μM hydrogen peroxide
Experimental: as §1, §2

OVCAR-4 = experiment: cells; assay type: cell-based; settings: OVCAR-4 (Ovarian Cancer)
MCF7 = experiment: cells; assay type: cell-based; settings: MCF7 (Breast Cancer)
ACHN = experiment: cells; assay type: cell-based; settings: ACHN (Renal Cancer)
RXF 393 = experiment: cells; assay type: cell-based; settings: RXF 393 (Renal Cancer)
MDA-MB-231/ATCC = experiment: cells; assay type: cell-based; settings: MDA-MB-231/ATCC (Breast Cancer)
[4] = Homo sapiens, read-out: LC50 (the source's name)

O=c1[nH]ccc2nc(N3CCC(O)CC3)nc(Nc3cccc(C(F)(F)F)c3)c12 [Compound 6, 2-(4-hydroxypiperidin-1-yl)-4-(3-(trifluoromethyl)phenylamino)pyrido[4,3-d]pyrimidine-5(6H)-one]
GI50 (UACC-257; Homo sapiens): 4.27 µM | IC50 (UACC-257; Homo sapiens): 8.71 µM | CC50 (UACC-257; [4]): 45.7 µM | TGI (UACC-257): 12.9 µM | TGI (BT-549): 4.37 µM | GI50 (BT-549; Homo sapiens): 1.58 µM | IC50 (BT-549; Homo sapiens): 4.57 µM | CC50 (BT-549; [4]): 14.1 µM | TGI (A498): 100 µM | GI50 (A498; Homo sapiens): 2.51 µM | IC50 (A498; Homo sapiens): ≥ 100 µM | CC50 (A498; [4]): 100 µM | TGI (HCT-15): 31.6 µM | GI50 (HCT-15; Homo sapiens): 0.537 µM | IC50 (HCT-15; Homo sapiens): 0.759 µM | CC50 (HCT-15; [4]): 100 µM | GI50 (SN12C; Homo sapiens): 4.07 µM | IC50 (SN12C; Homo sapiens): 12.9 µM | CC50 (SN12C; [4]): 100 µM | TGI (SN12C): 100 µM | GI50 (LOX IMVI; Homo sapiens): 1.41 µM | IC50 (LOX IMVI; Homo sapiens): 2.63 µM | CC50 (LOX IMVI; [4]): 91.2 µM | TGI (LOX IMVI): 16.6 µM | TGI (786-0): 100 µM | GI50 (786-0; Homo sapiens): 2.04 µM | IC50 (786-0; Homo sapiens): 8.13 µM | CC50 (786-0; [4]): 100 µM | Percent Cell Death ([1]; 0.05 uM): 54.2% | Percent Cell Death ([1]; 0.5 uM): 57.5% | Percent Cell Death ([1]; 5 uM): 42.5% | Percent Cell Death ([2]; 0.05 uM): 53.5% | Percent Cell Death ([2]; 0.5 uM): 56.9% | Percent Cell Death ([2]; 5 uM): 45.8% | protective effects against LRRK2-associated cell death ([2]; at 0.05 uM and higher, vs vector, DMSO or H2O2 controls): increased protective effects | Percent Cell Death ([3]; 0.05 uM): 62.2% | Percent Cell Death ([3]; 0.5 uM): 62.2% | Percent Cell Death ([3]; 5 uM): 49.7% | protective effects against LRRK2-associated cell death ([3]; LRRK2 wild-type, at 0.05 uM and higher, vs vector, DMSO or H2O2 controls): increased protective effects | GI50 (OVCAR-4; Homo sapiens): 1.74 µM | IC50 (OVCAR-4; Homo sapiens): 9.12 µM | LC50 (OVCAR-4; Homo sapiens): 100 µM | TGI (OVCAR-4): 36.3 µM | GI50 (MCF7; Homo sapiens): 2.82 µM | IC50 (MCF7; Homo sapiens): 4.07 µM | CC50 (MCF7; [4]): 100 µM | TGI (MCF7): 12.6 µM | TGI (ACHN): 85.1 µM | GI50 (ACHN; Homo sapiens): 0.708 µM | IC50 (ACHN; Homo sapiens): 2.24 µM | CC50 (ACHN; [4]): 100 µM | GI50 (RXF 393; Homo sapiens): 1.45 µM | IC50 (RXF 393; Homo sapiens): 21.4 µM | CC50 (RXF 393; [4]): 100 µM | TGI (RXF 393): 23.4 µM | GI50 (MDA-MB-231/ATCC; Homo sapiens): 12.3 µM | IC50 (MDA-MB-231/ATCC; Homo sapiens): ≥ 100 µM | CC50 (MDA-MB-231/ATCC; [4]): 100 µM | TGI (MDA-MB-231/ATCC): 100 µM
